The results in this text go back to patent publication US12655150B2 (Cedilla Therapeutics, Inc., priority 2021, dated 2026).

This assay has as its system NCI-H226. As to the kind of experiment: 72H TEAD Proliferation Assay (Cell Titer Glo 2.0). Type of assay: cell-based. To be noted: Homo sapiens, NCI-H226, 72 h, CTG 2.0, cell line not given (NCI-H226 responsive, NCI-H28 non-responsive). As to the method: 72H TEAD Proliferation Assay.
The effect of TEAD inhibition on cell proliferation was assayed using Cell Titer Glo (CTG) 2.0 to measure response in mesothelioma cell lines NCI-H226 (ATCC, #CRL-5826) and NCI-H28 (ATCC, #CRL-5820).
The 72H TEAD Proliferation assay utilizes Cell Titer-Glo 2.0 (Promega, #G9243) to measure the proliferation of cells in the presence or absence of compound. Cell Titer-Glo 2.0 determines the amount of viable cells by quantifying ATP (an indication of metabolically active cells). It utilizes the conversion of Luciferin to Oxyluciferin and a luminescent signal with the use of ATP to report the quantity of viable cells in culture. Within cells that are continually growing, ATP is being synthesized to meet their metabolic demands, meanwhile the opposite is true for cells that are dying or slowing down their proliferation and either no longer using ATP or are using less, respectively. The NF2-deficient NCI-H226 has been genetically validated as a cell line that is sensitive to TEAD inhibition. The NF2-wild type NCI-H28 has been genetically validated as a cell line that is not sensitive to TEAD inhibition and grows independently of TEAD activity.
Compounds were screened against the responsive NCI-H226 cell line to assess the compounds' ability to inhibit TEAD and cell growth. Compounds were also screened against the non-responsive NCI-H28 cell line to ascertain whether the inhibition of cell growth was due to inhibition of the target TEAD or whether the inhibition was due to off-target cytotoxicity.
• 1) Assay ready plates (ARPs) were prepared by Echo acoustic liquid handler. […] After CTG addition, plates were placed on shaker at 800 RPM for 15 minutes at room temperature and kept in the dark. Luminescence was measured using EnVision multilabel plate reader with ultra-sensitive detection module. • 9) Data Analysis: First background luminescence (no CTG wells) was subtracted from luminescence reading of all wells, then TO luminescence was subtracted from T72 luminescence. To compare anti-proliferative effect of compounds, GI50 was obtained by fitting dose response curves with nonlinear regression curve fit.
In turn, `O=C(O)c1cnc2c(c1)nc(N1CCC3(CC1)CC3)c1cccn12` [I-138, 6-(6-Azaspiro[2.5]octan-6-yl)pyrido[3,2-e]pyrrolo[1,2-a]pyrazine-3-carboxylic acid] had a 50% growth inhibitory concentration (GI50) of 1000 to 5000 nM.

Compound `COc1cc(-c2ccc(C(F)(F)F)cc2)nc2cc(C(=O)N3CCC[C@@H]3CO)ccc12` [I-371, (R)-(2-(hydroxymethyl)pyrrolidin-1-yl) (4-methoxy-2-(4-(trifluoromethyl)phenyl)quinolin-7-yl)methanone] displayed a concentration for 50% growth inhibition (GI50) of 5000 to 10000 nM.

On to `COc1cc(-c2ccc(C(F)(F)F)cc2)nc2cc(C(=O)N[C@@H](CO)c3ccccn3)ccc12` [I-365, (R)—N-(2-hydroxy-1-(pyridin-2-yl)ethyl)-4-methoxy-2-(4-(trifluoromethyl)phenyl)quinoline-7-carboxamide], for which the GI50 was not above 1000 nM.

In turn, `C=CS(=O)(=O)NCc1cn2ccnc2c(-c2ccc(C(C)(C)C)cc2)n1` [I-141, N-((8-(4-(tert-Butyl)phenyl)imidazo[1,2-a]pyrazin-6-yl)methyl)ethenesulfonamide] yielded a GI50 of 1000 to 5000 nM.

Compound `CC(C)(C)c1ccc(-c2nc3cc(C(N)=O)ccc3n3ccnc23)cc1` [I-73, 4-(4-(tert-Butyl)phenyl)imidazo[1,2-a]quinoxaline-7-carboxamide] displayed a GI50 of 1000 to 5000 nM.

In turn, `CNS(=O)(=O)c1ccc2c(c1)nc(-c1ccc(C(C)(C)C)cc1)c1cccn12` [I-310, 4-(4-(tert-butyl)phenyl)-N-methylpyrrolo[1,2-a]quinoxaline-7-sulfonamide] registered a GI50 of 1000 to 5000 nM.

`C=CC(=O)NCc1cn2cccc2c(-c2ccc(C(C)(C)C)cc2)n1` [I-111, N-((1-(4-(tert-butyl)phenyl)pyrrolo[1,2-a]pyrazin-3-yl)methyl)acrylamide] gave a GI50 not above 1000 nM.

Consider `CC(C)(C)c1ccc(-c2nc3cc(C(=O)O)ncc3n3cccc23)cc1` [I-282, 6-(4-(tert-butyl)phenyl)pyrido[4,3-e]pyrrolo[1,2-a]pyrazine-3-carboxylic acid], for which the 50% growth inhibitory concentration (GI50) was in the range of 1000 to 5000 nM.

Regarding `Cc1cc(-c2ccc(C(F)(F)F)cc2)nc2cc(C(=O)N[C@@H](C)c3cccc(C(=O)O)c3)ccc12` [I-267, (S)-3-(1-(4-methyl-2-(4-(trifluoromethyl)phenyl)quinoline-7-carboxamido)ethyl)benzoic acid], the GI50 is not above 1000 nM.

In turn, `C=CC(=O)Nc1cn2ccnc2c(-c2ccc(C(C)(C)C)cc2)n1` [I-146, N-(8-(4-(tert-Butyl)phenyl)imidazo[1,2-a]pyrazin-6-yl)acrylamide] displayed a GI50 of 1000 to 5000 nM.

`C=CC(=O)Nc1c(C)nc2c(-c3ccc(C(C)(C)C)cc3)nccn12` [I-257, N-(8-(4-(tert-butyl)phenyl)-2-methylimidazo[1,2-a]pyrazin-3-yl)acrylamide] registered a GI50 of 5000 to 10000 nM.

In the case of `CC[C@H](CO)NC(=O)c1ccc2c(OC)cc(-c3ccc(C(F)(F)F)cc3)nc2c1` [I-326, (R)—N-(1-hydroxybutan-2-yl)-4-methoxy-2-(4-(trifluoromethyl)phenyl)quinoline-7-carboxamide], the GI50 is not above 1000 nM.

Take `O=C(/C=C/CF)NCc1cn2ccnc2c(-c2ccc(C(F)(F)F)cc2F)n1` [I-291, (E)-4-fluoro-N-((8-(2-fluoro-4-(trifluoromethyl)phenyl)imidazo[1,2-a]pyrazin-6-yl)methyl)but-2-enamide]: the GI50 was not above 1000 nM.

In turn, `O=C(O)c1ccc2c(c1)nc(Oc1ccc(C(F)(F)F)cc1)c1cccn12` [I-23, 4-(4-(Trifluoromethyl)phenoxy) pyrrolo[1,2-a] quinoxaline-7-carboxylic acid] returned a 50% growth inhibitory concentration (GI50) not above 1000 nM.

In turn, `O=C(O)c1ccc2c(c1)nc(-c1ccc(OC(F)(F)F)cc1)c1cccn12` [I-192, 4-(4-(trifluoromethoxy)phenyl)pyrrolo[1,2-a]quinoxaline-7-carboxylic acid] came in with a concentration for 50% growth inhibition (GI50) not above 1000 nM.

`O=C(N[C@@H](CO)c1ccccc1)c1ccc2ccc(-c3ccc(C(F)(F)F)cc3)nc2c1` [I-428, (R)—N-(2-hydroxy-1-phenylethyl)-2-(4-(trifluoromethyl)phenyl)quinoline-7-carboxamide]: the GI50 was not above 1000 nM.

In turn, `Cc1cc(-c2ccc(OC(F)(F)F)cc2)nc2cc(C(=O)O)ccc12` [I-256, 4-methyl-2-(4-(trifluoromethoxy)phenyl)quinoline-7-carboxylic acid] registered a GI50 of 1000 to 5000 nM.

In turn, `COc1cn2ccnc2c(-c2ccc(C(C)(C)C)cc2)n1` [I-149, 8-(4-(tert-Butyl)phenyl)-6-methoxyimidazo[1,2-a]pyrazine] returned a 50% growth inhibitory concentration (GI50) of more than 10000 nM.

`CC(NC(=O)N1CCc2c(cccc2-c2ccc(C(F)(F)F)cc2)C1)c1ccccn1` (stereo not drawn) [I-179, N-(1-(pyridin-2-yl)ethyl)-5-(4-(trifluoromethyl)phenyl)-3,4-dihydroisoquinoline-2(1H)-carboxamide] gave a GI50 not above 1000 nM.

On to `O=C(O)c1ccc2c(c1)nc(N1CCC(C(F)(F)F)C1)c1cccn12` (stereo not drawn) [I-10, 4-(3-(Trifluoromethyl)pyrrolidin-1-yl)pyrrolo[1,2-a]quinoxaline-7-carboxylic acid], for which the 50% growth inhibitory concentration (GI50) lay within 1000 to 5000 nM.

The compound `Cc1cc(-c2ccc(C(F)(F)F)cc2)nc2cc(C(N)=O)ccc12` [I-258, 4-Methyl-2-(4-(trifluoromethyl)phenyl)quinoline-7-carboxamide] came in with a 50% growth inhibitory concentration (GI50) of 1000 to 5000 nM.

Compound `CC(C)(C)c1ccc(-c2nc3cc(NS(C)(=O)=O)ccc3n3cccc23)cc1` [I-122, N-(4-(4-(tert-butyl)phenyl)pyrrolo[1,2-a]quinoxalin-7-yl)methanesulfonamide] came in with a GI50 of 1000 to 5000 nM.

On to `CC(C)(C)c1ccc(-c2cnc3ccc(C(N)=O)cc3n2)cc1` [I-158, 3-(4-(tert-Butyl)phenyl)quinoxaline-6-carboxamide], for which the concentration for 50% growth inhibition (GI50) was more than 10000 nM.

The compound `Cc1ccc(-c2nc3cc(C(=O)O)ccc3n3ccnc23)cc1` [I-66, 4-(p-Tolyl)imidazo[1,2-a]quinoxaline-7-carboxylic acid] registered a GI50 of 5000 to 10000 nM.

Turning to `O=C(O)c1ccc2c(c1)nc(-c1ccncc1)c1cccn12` [I-47, 4-(Pyridin-4-yl)pyrrolo[1,2-a]quinoxaline-7-carboxylic acid], the GI50 is more than 10000 nM.

In turn, `O=C(O)c1ccc2c(c1)nc(NC1CCCC(C(F)(F)F)C1)c1cccn12` (stereo not drawn) [I-19, 4-((3-(Trifluoromethyl)cyclohexyl)amino)pyrrolo[1,2-a]quinoxaline-7-carboxylic acid] showed a 50% growth inhibitory concentration (GI50) of 1000 to 5000 nM.

`CC(C)(C)c1ccc(-c2nc(C(=O)O)cn3cncc23)cc1` [I-94, 8-(4-(tert-Butyl)phenyl)imidazo[1,5-a]pyrazine-6-carboxylic acid]: the GI50 is more than 10000 nM.

`Cc1cnc(-c2nc3cc(C(=O)O)ccc3n3cccc23)nc1` [I-129, 4-(5-Methylpyrimidin-2-yl)pyrrolo[1,2-a]quinoxaline-7-carboxylic acid] had a 50% growth inhibitory concentration (GI50) of 1000 to 5000 nM.

Turning to `C=CC(=O)NCc1cn2ccnc2c(-c2ccc(OC(F)(F)F)cc2)n1` [I-173, N-((8-(4-(trifluoromethoxy)phenyl)imidazo[1,2-a]pyrazin-6-yl)methyl)acrylamide], the 50% growth inhibitory concentration (GI50) is not above 1000 nM.

Turning to `O=C(/C=C/CF)NCc1cn2ccnc2c(-c2ccc(C(F)(F)F)cc2)n1` [I-214, (E)-4-fluoro-N-((8-(4-(trifluoromethyl)phenyl)imidazo[1,2-a]pyrazin-6-yl)methyl)but-2-enamide], the 50% growth inhibitory concentration (GI50) was not above 1000 nM.

Consider `C=CC(=O)Nc1ccc2c(c1)nc(-c1ccc(C(C)(C)C)cc1)c1cccn12` [I-119, N-(4-(4-(tert-butyl)phenyl)pyrrolo[1,2-a]quinoxalin-7-yl)acrylamide], for which the GI50 is not above 1000 nM.

Consider `COc1cc(-c2ccc(C(F)(F)F)cc2)nc2cc(S(C)(=O)=O)ccc12` [I-415, 4-methoxy-7-(methylsulfonyl)-2-(4-(trifluoromethyl)phenyl)quinoline], for which the GI50 is not above 1000 nM.

`COc1nc(-c2ccc(C(F)(F)F)cc2)nc2cc(C(=O)N[C@H](C)CO)ccc12` [I-434, (R)—N-(1-hydroxypropan-2-yl)-4-methoxy-2-(4-(trifluoromethyl)phenyl)quinazoline-7-carboxamide] registered a 50% growth inhibitory concentration (GI50) not above 1000 nM.

The compound `Cc1cc(-c2ccc(C(F)(F)F)cc2F)nc2cc(C(=O)O)ccc12` [I-87, 2-(2-Fluoro-4-(trifluoromethyl)phenyl)-4-methylquinoline-7-carboxylic acid] came in with a GI50 not above 1000 nM.

The compound `O=C(O)c1ccc2c(c1)nc(-c1ccc(C(F)(F)F)cn1)c1cccn12` [I-132, 4-(5-(Trifluoromethyl)pyridin-2-yl)pyrrolo[1,2-a]quinoxaline-7-carboxylic acid] showed a GI50 not above 1000 nM.

Regarding `O=C(O)c1ccc2c(OC(F)F)cc(-c3ccc(C(F)(F)F)cc3)nc2c1` [I-331, 4-(Difluoromethoxy)-2-(4-(trifluoromethyl)phenyl)quinoline-7-carboxylic acid], the concentration for 50% growth inhibition (GI50) is not above 1000 nM.
